Publication PMC5874716, “Antimicrobial Peptides for Topical Treatment of Osteomyelitis and Implant-Related Infections: Study in the Spongy Bone” (Pharmaceuticals, 2018)
Counter-ions that a name gives are not always drawn. Non-standard residues stand in square brackets, D forms with d. Residues, ends and D or L forms follow the SMILES beside them. No end group written: not given here. βAla = NCCC(=O)O

How the values were obtained:
Type in all cases: cell-based
human erythrocytes = experiment: Haemolysis assay; conditions: concentration causing lysis of 50% of human red blood cells; at least three times in duplicates
Protocol: (§1) MIC values for peptides were established by observing growth of treated bacteria in HONEYCOMB 100-well microtiter plates (Helsinki, Finland) using a Bioscreen C instrument (Oy Growth Curves, Helsinki, Finland) as previously described. Haemolytic activity of peptides expressed as the concentration of a peptide required for lysis of 50% of human erythrocytes in the assay (LC50) was measured using a Tecan infinite M200 PRO reader (Tecan Austria GmbH, Grödig, Austria). Blood samples for determining haemolytic activity were obtained from healthy volunteers.

[1] = system: S. epidermidis clinical isolate (Motol); experiment: microbe, parasite or virus in culture; conditions: clinical isolate Motol, Bioscreen C, at least three times in duplicates
Protocol: (§2) Femur heads (ca. 70 pieces) taken from patients during hip replacement surgery were periodically purchased in the period between 2014–2017 as discarded from the bone tissue bank at University Hospital in Motol, Prague, Czech Republic. The reason for the replacements by artificial prosthesis was the worn out cartilage on the surface of their heads. Bone samples were stored at −80 °C under standard conditions of certified tissue banks. In the laboratory, they were kept at +5 °C overnight and then at room temperature for several hours before they could be used for the experiments. The experiments with this material were approved by the Ethics Committee for Multi-Centric Clinical Trials of the University Hospital Motol, Reference No: EK-655/15. Methicillin-resistant S. aureus (MRSA 6271) ATCC 43300 and P. aeruginosa (5482) ATCC 27853 were purchased from the Czech National Collection of Type Cultures, National Institute of Public Health, Prague, Czech Republic. Methicillin-resistant S. aureus (MRSA (L)) and P. aeruginosa (L) were obtained as multi-resistant clinical isolates from Liberec Regional Hospital, Liberec, Czech Republic. Methicillin-resistant S. aureus (MRSA (M)), E. faecalis and S. epidermidis were obtained as clinical isolates from University Hospital in Motol, Prague. Candida albicans (F7-39/IDE99) came from the mycological collection of the Faculty of Medicine, Palacky University, Olomouc, Czech Republic. C. albicans ATCC MYA-2876, C. tropicalis ATCC 750 and C. glabrata DSY565 were kindly provided by Dr. Hana Sychrová from the Institute of Physiology, Academy of Sciences of the Czech Republic, Prague. Vancomycin hydrochloride, gentamicin sulfate, ceftriaxone disodium salt, amphotericin B, fluconazole, and clotrimazole were obtained from Sigma-Aldrich, Prague, Czech Republic.
as §1

[2] = system: MRSA clinical isolate from Liberec Regional Hospital (MRSA (L)); experiment: microbe, parasite or virus in culture; conditions: clinical isolate Liberec, Bioscreen C, at least three times in duplicates
Protocol: as §2, §1

[3] = system: E. faecalis clinical isolate (Motol); experiment: microbe, parasite or virus in culture; conditions: clinical isolate Motol, Bioscreen C, at least three times in duplicates
Protocol: as §2, §1

[4] = system: P. aeruginosa (5482) ATCC 27853; experiment: microbe, parasite or virus in culture; conditions: Bioscreen C, at least three times in duplicates
Protocol: as §2, §1

MRSA 6271 (ATCC 43300) = experiment: microbe, parasite or virus in culture; conditions: growth in 100-well microtiter plates, Bioscreen C, tested at least three times in duplicates
Protocol: as §2, §1

[5] = system: P. aeruginosa clinical isolate from Liberec Regional Hospital; experiment: microbe, parasite or virus in culture; conditions: clinical isolate Liberec, Bioscreen C, at least three times in duplicates
Protocol: as §2, §1

[6] = system: MRSA clinical isolate from University Hospital in Motol (MRSA (M)); experiment: microbe, parasite or virus in culture; conditions: clinical isolate Motol, Bioscreen C, at least three times in duplicates
Protocol: as §2, §1

Candida albicans = conditions: Bioscreen C; at least three times in duplicates
Protocol: as §2, §1

GKWLKLLKKILK-NH2 [V]
Haemolytic Activity LC50 (human erythrocytes): 196 µM | Antimicrobial Activity MIC, S. e. b [1]: 2.2 µM | Antimicrobial Activity MIC, MRSA a [2]: 8.0 µM | Antimicrobial Activity MIC, E. f. b [3]: 50.7 µM | Antimicrobial Activity MIC, P. a. 5482 [4]: 4.0 µM | Antimicrobial Activity MIC, MRSA 6271 (MRSA 6271 (ATCC 43300)): 10.0 µM | Antimicrobial Activity MIC, P. a. a [5]: 10.7 µM | Antimicrobial Activity MIC, MRSA b [6]: 10.0 µM | Antimicrobial Activity MIC, C. a. (Candida albicans): 16.0 µM

CC[C@@H](C)[C@@H](NC(=O)[C@@H](CCCCN)NC(=O)[C@@H](CCCCN)NC(=O)[C@@H](CC(C)C)NC(=O)[C@@H](CC(C)C)NC(=O)[C@@H](CCCCN)NC(=O)[C@H](NC(=O)[C@@H](Cc1c[nH]c2ccccc12)NC(=O)[C@@H](CCCCN)NC(=O)CN)C(C)C)C(=O)N[C@H](CC(C)C)C(=O)N[C@H](CCCCN)C(N)=O [VII] (H-G[dK][dW][dV][dK][dL][dL][dK][dK][dI][dL][dK]-NH2; N-terminus assumed)
Haemolytic Activity LC50 (human erythrocytes): >400 µM | Antimicrobial Activity MIC, S. e. b [1]: 4.2 µM | Antimicrobial Activity MIC, MRSA a [2]: 15.0 µM | Antimicrobial Activity MIC, E. f. b [3]: 25.3 µM | Antimicrobial Activity MIC, P. a. 5482 [4]: 4.5 µM | Antimicrobial Activity MIC, MRSA 6271 (MRSA 6271 (ATCC 43300)): 22.0 µM | Antimicrobial Activity MIC, P. a. a [5]: 25.3 µM | Antimicrobial Activity MIC, MRSA b [6]: 22.0 µM | Antimicrobial Activity MIC, C. a. (Candida albicans): 12.5 µM

CC[C@@H](C)[C@@H](NC(=O)[C@@H](CCCCN)NC(=O)[C@@H](CCCCN)NC(=O)[C@@H](CC(C)C)NC(=O)[C@@H](CC(C)C)NC(=O)[C@@H](CCCCN)NC(=O)[C@@H](CCSC)NC(=O)[C@@H](Cc1c[nH]c2ccccc12)NC(=O)[C@@H](CCCCN)NC(=O)CCN)C(=O)N[C@H](CC(C)C)C(=O)N[C@H](CCCCN)C(N)=O [XII] (H-[βAla][dK][dW][dM][dK][dL][dL][dK][dK][dI][dL][dK]-NH2; N-terminus assumed)
Haemolytic Activity LC50 (human erythrocytes): >400 µM | Antimicrobial Activity MIC, S. e. b [1]: 2.5 µM | Antimicrobial Activity MIC, MRSA a [2]: 8.0 µM | Antimicrobial Activity MIC, E. f. b [3]: 32.0 µM | Antimicrobial Activity MIC, P. a. 5482 [4]: 3.2 µM | Antimicrobial Activity MIC, MRSA 6271 (MRSA 6271 (ATCC 43300)): 16.0 µM | Antimicrobial Activity MIC, P. a. a [5]: 8.0 µM | Antimicrobial Activity MIC, MRSA b [6]: 16.0 µM | Antimicrobial Activity MIC, C. a. (Candida albicans): 5.3 µM

CC[C@@H](C)[C@@H](NC(=O)[C@@H](CCCCN)NC(=O)[C@@H](CCCCN)NC(=O)[C@@H](CC(C)C)NC(=O)[C@@H](CC(C)C)NC(=O)[C@@H](CCCCN)NC(=O)[C@@H](CCSC)NC(=O)[C@@H](Cc1c[nH]c2ccccc12)NC(=O)[C@H](N)CCCCN)C(=O)N[C@H](CC(C)C)C(=O)N[C@H](CCCCN)C(N)=O [X] (H-[dK][dW][dM][dK][dL][dL][dK][dK][dI][dL][dK]-NH2; N-terminus assumed)
Haemolytic Activity LC50 (human erythrocytes): >400 µM | Antimicrobial Activity MIC, S. e. b [1]: 3.5 µM | Antimicrobial Activity MIC, MRSA a [2]: 14.0 µM | Antimicrobial Activity MIC, E. f. b [3]: 36 µM | Antimicrobial Activity MIC, P. a. 5482 [4]: 4.5 µM | Antimicrobial Activity MIC, MRSA 6271 (MRSA 6271 (ATCC 43300)): 19.3 µM | Antimicrobial Activity MIC, P. a. a [5]: 18.0 µM | Antimicrobial Activity MIC, MRSA b [6]: 14.0 µM | Antimicrobial Activity MIC, C. a. (Candida albicans): 11.3 µM

CNC(C)C1CCC(N)C(OC2C(N)CC(N)C(OC3OCC(C)(O)C(NC)C3O)C2O)O1 (stereo not shown) [Gentamicin, gentamicin sulfate, reference compound]
MIC ([1]; Staphylococcus epidermidis, read-out: Antimicrobial Activity MIC, S. e. b): 109 µM | MIC ([2]; Staphylococcus aureus, MRSA, read-out: Antimicrobial Activity MIC, MRSA a): 3.9 µM | MIC ([3]; Enterococcus faecalis, read-out: Antimicrobial Activity MIC, E. f. b): 95.2 µM | MIC ([4]; Pseudomonas aeruginosa, ATCC27853, read-out: Antimicrobial Activity MIC, P. a. 5482): 2 µM | MIC (MRSA 6271 (ATCC 43300); Staphylococcus aureus, read-out: Antimicrobial Activity MIC, MRSA 6271): 325 µM | MIC ([5]; Pseudomonas aeruginosa, read-out: Antimicrobial Activity MIC, P. a. a): > 220 µM | MIC ([6]; Staphylococcus aureus, MRSA, read-out: Antimicrobial Activity MIC, MRSA b): 4.5 µM

CC[C@@H](C)[C@@H](NC(=O)[C@@H](CCCCN)NC(=O)[C@@H](CCCCN)NC(=O)[C@@H](CC(C)C)NC(=O)[C@@H](CC(C)C)NC(=O)[C@@H](CCCCN)NC(=O)[C@@H](CCSC)NC(=O)[C@@H](Cc1c[nH]c2ccccc12)NC(=O)[C@@H](CCCCN)NC(=O)CN)C(=O)N[C@H](CC(C)C)C(=O)N[C@H](CCCCN)C(N)=O [II] (H-G[dK][dW][dM][dK][dL][dL][dK][dK][dI][dL][dK]-NH2; N-terminus assumed)
Haemolytic Activity LC50 (human erythrocytes): >400 µM | Antimicrobial Activity MIC, S. e. b [1]: 2.0 µM | Antimicrobial Activity MIC, MRSA a [2]: 5.3 µM | Antimicrobial Activity MIC, E. f. b [3]: 12.7 µM | Antimicrobial Activity MIC, P. a. 5482 [4]: 4.5 µM | Antimicrobial Activity MIC, MRSA 6271 (MRSA 6271 (ATCC 43300)): 11.3 µM | Antimicrobial Activity MIC, P. a. a [5]: 12.5 µM | Antimicrobial Activity MIC, MRSA b [6]: 9.7 µM | Antimicrobial Activity MIC, C. a. (Candida albicans): 5.7 µM

GKWMKMLKKILK-NH2 [IV]
Haemolytic Activity LC50 (human erythrocytes): >200 µM | Antimicrobial Activity MIC, S. e. b [1]: 3.2 µM | Antimicrobial Activity MIC, MRSA a [2]: 10.0 µM | Antimicrobial Activity MIC, E. f. b [3]: >100 µM | Antimicrobial Activity MIC, P. a. 5482 [4]: 5.3 µM | Antimicrobial Activity MIC, MRSA 6271 (MRSA 6271 (ATCC 43300)): 20.0 µM | Antimicrobial Activity MIC, P. a. a [5]: 12.7 µM | Antimicrobial Activity MIC, MRSA b [6]: 20.0 µM | Antimicrobial Activity MIC, C. a. (Candida albicans): 12.7 µM

GKWVKLLKKILK-NH2 [VI]
Haemolytic Activity LC50 (human erythrocytes): >400 µM | Antimicrobial Activity MIC, S. e. b [1]: 2.5 µM | Antimicrobial Activity MIC, MRSA a [2]: 5.0 µM | Antimicrobial Activity MIC, E. f. b [3]: >100 µM | Antimicrobial Activity MIC, P. a. 5482 [4]: 3.0 µM | Antimicrobial Activity MIC, MRSA 6271 (MRSA 6271 (ATCC 43300)): 9.0 µM | Antimicrobial Activity MIC, P. a. a [5]: 12.7 µM | Antimicrobial Activity MIC, MRSA b [6]: 10.0 µM | Antimicrobial Activity MIC, C. a. (Candida albicans): 6.3 µM

KWMKLLKKILK-NH2 [IX]
Haemolytic Activity LC50 (human erythrocytes): >400 µM | Antimicrobial Activity MIC, S. e. b [1]: 3.2 µM | Antimicrobial Activity MIC, MRSA a [2]: 8.0 µM | Antimicrobial Activity MIC, E. f. b [3]: >100 µM | Antimicrobial Activity MIC, P. a. 5482 [4]: 2.9 µM | Antimicrobial Activity MIC, MRSA 6271 (MRSA 6271 (ATCC 43300)): 13.5 µM | Antimicrobial Activity MIC, P. a. a [5]: 5.8 µM | Antimicrobial Activity MIC, MRSA b [6]: 17.7 µM | Antimicrobial Activity MIC, C. a. (Candida albicans): 9.5 µM

GKWKKLLKKILK-NH2 [III]
Haemolytic Activity LC50 (human erythrocytes): >400 µM | Antimicrobial Activity MIC, S. e. b [1]: 4.7 µM | Antimicrobial Activity MIC, MRSA a [2]: 11.5 µM | Antimicrobial Activity MIC, E. f. b [3]: >100 µM | Antimicrobial Activity MIC, P. a. 5482 [4]: 2.9 µM | Antimicrobial Activity MIC, MRSA 6271 (MRSA 6271 (ATCC 43300)): 29.7 µM | Antimicrobial Activity MIC, P. a. a [5]: 9.5 µM | Antimicrobial Activity MIC, MRSA b [6]: 25.3 µM | Antimicrobial Activity MIC, C. a. (Candida albicans): 9.5 µM
